Experimental findings from patent US20150344540A1, “NOVEL GLP-1 RECEPTOR AGONISTS WITH CHOLESTEROL EFFLUX ACTIVITY” (NOVO NORDISK A/S, priority 2012, published 2015) are described below.

For experiment [1], the system named is Mouse monocyte/macrophage cell line, RAW 264.7. As to the kind of experiment: Cholesterol efflux assay (3H-cholesterol, macrophage cell line). Conditions: RAW 264.7, 4 hrs incubation, 0.1% human serum albumin, ABCA1-mediated efflux. It is filed as cell-based.
The target in a further experiment is human GLP-1 receptor (Homo sapiens, UniProt P43220). As to the kind of experiment: Functional GLP-1 receptor assay, in vitro potency (CRE luciferase; whole cells). It is filed as cell-based. The conditions noted are these: BHK cells expressing human GLP-1 receptor.
[2] abbreviates: GLP1R CRE luc 1% HSA EC50 Mean Value, 1% HSA.
Where [3] appears, read: 0% HSA, read-out: GLP1R CRE luc 0% HSA EC50 Mean Value.

Where two headings read alike, the source gives them in different places. Where a SMILES comes first, the peptide text is derived from it. [ ]: non-standard residue; d: D form. Aib = CC(C)(N)C(=O)O

Chain of human GLP-1 receptor (P43220 24-463): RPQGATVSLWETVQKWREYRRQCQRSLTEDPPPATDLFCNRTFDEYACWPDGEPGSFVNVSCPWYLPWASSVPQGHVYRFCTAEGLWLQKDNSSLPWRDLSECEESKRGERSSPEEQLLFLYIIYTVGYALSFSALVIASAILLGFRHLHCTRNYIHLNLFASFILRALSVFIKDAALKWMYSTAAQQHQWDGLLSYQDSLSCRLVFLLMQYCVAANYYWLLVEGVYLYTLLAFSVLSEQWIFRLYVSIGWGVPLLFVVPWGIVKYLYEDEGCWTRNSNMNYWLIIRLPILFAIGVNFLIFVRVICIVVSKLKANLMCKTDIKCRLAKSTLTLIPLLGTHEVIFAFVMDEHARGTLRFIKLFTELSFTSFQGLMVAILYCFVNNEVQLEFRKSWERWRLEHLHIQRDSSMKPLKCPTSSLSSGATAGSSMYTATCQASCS

The term EC50 denotes the midpoint of the concentration-response curve. For `CC[C@H](C)[C@H](NC(=O)[C@H](Cc1ccccc1)NC(=O)[C@H](CCC(=O)O)NC(=O)[C@H](CCC(N)=O)NC(=O)[C@@H](NC(=O)[C@H](C)NC(=O)[C@H](CCC(=O)O)NC(=O)CNC(=O)[C@H](CCC(=O)O)NC(=O)[C@H](CC(C)C)NC(=O)[C@H](Cc1ccc(O)cc1)NC(=O)[C@H](CO)NC(=O)[C@H](CO)NC(=O)[C@@H](NC(=O)[C@H](CC(=O)O)NC(=O)[C@H](CO)NC(=O)[C@@H](NC(=O)[C@H](Cc1ccccc1)NC(=O)[C@@H](NC(=O)CNC(=O)[C@H](CCC(=O)O)NC(=O)C(C)(C)NC(=O)[C@@H](N)Cc1c[nH]cn1)[C@@H](C)O)[C@@H](C)O)C(C)C)C(C)C)C(=O)N[C@@H](C)C(=O)N[C@@H](Cc1c[nH]c2ccccc12)C(=O)N[C@@H](CC(C)C)C(=O)N[C@H](C(=O)N[C@@H](CCC(=O)O)C(=O)N[C@@H](C)C(=O)N[C@H](C(=O)N[C@@H](C)C(=O)N[C@@H](CCC(=O)O)C(=O)N[C@@H](Cc1ccccc1)C(=O)N[C@@H](CC(C)C)C(N)=O)C(C)C)C(C)C` [Compound 94] (H-H[Aib]EGTFTSDVSSYLEGEAVQEFIAWLVEAVAEFL-NH2), the “4 h Cholesterol Efflux Emax” value in experiment [1] was 74%. In addition, at human GLP-1 receptor (setting [2]), it took 0.273 nM to reach a half-maximal effect (EC50).
As to `CC[C@H](C)[C@H](NC(=O)[C@H](Cc1ccccc1)NC(=O)[C@H](CCC(=O)O)NC(=O)[C@H](CCC(N)=O)NC(=O)[C@@H](NC(=O)[C@H](C)NC(=O)[C@H](CCC(=O)O)NC(=O)CNC(=O)[C@H](CCC(=O)O)NC(=O)[C@H](CC(C)C)NC(=O)[C@H](Cc1ccc(O)cc1)NC(=O)[C@H](CO)NC(=O)[C@H](CO)NC(=O)[C@@H](NC(=O)[C@H](CC(=O)O)NC(=O)[C@H](CO)NC(=O)[C@@H](NC(=O)[C@H](Cc1ccccc1)NC(=O)[C@@H](NC(=O)CNC(=O)[C@H](CCC(=O)O)NC(=O)C(C)(C)NC(=O)[C@@H](N)Cc1c[nH]cn1)[C@@H](C)O)[C@@H](C)O)C(C)C)C(C)C)C(=O)N[C@@H](C)C(=O)N[C@@H](Cc1c[nH]c2ccccc12)C(=O)N[C@@H](CC(C)C)C(=O)N[C@H](C(=O)N[C@@H](CCC(=O)O)C(=O)N[C@@H](CCC(N)=O)C(=O)NC(C)(C)C(=O)N[C@@H](CCC(N)=O)C(=O)N[C@@H](CCC(=O)O)C(=O)N[C@@H](Cc1ccccc1)C(=O)N[C@@H](CC(C)C)C(N)=O)C(C)C` [Compound 95] (H-H[Aib]EGTFTSDVSSYLEGEAVQEFIAWLVEQ[Aib]QEFL-NH2), the “4 h Cholesterol Efflux Emax” value in experiment [1] is listed as 59%. The molecule also yielded a 50% effective concentration (EC50) on human GLP-1 receptor (setting [2]) of 0.04 nM.
As to `CC[C@H](C)[C@H](NC(=O)[C@H](Cc1ccccc1)NC(=O)[C@H](CCC(=O)O)NC(=O)[C@H](CCCCN)NC(=O)[C@@H](NC(=O)[C@H](C)NC(=O)[C@H](CCC(=O)O)NC(=O)CNC(=O)[C@H](CCC(=O)O)NC(=O)[C@H](CC(C)C)NC(=O)[C@H](Cc1ccc(O)cc1)NC(=O)[C@H](CO)NC(=O)[C@H](CO)NC(=O)[C@@H](NC(=O)[C@H](CC(=O)O)NC(=O)[C@H](CO)NC(=O)[C@@H](NC(=O)[C@H](Cc1ccccc1)NC(=O)[C@@H](NC(=O)CNC(=O)[C@H](CCC(=O)O)NC(=O)C(C)(C)NC(=O)[C@@H](N)Cc1c[nH]cn1)[C@@H](C)O)[C@@H](C)O)C(C)C)C(C)C)C(=O)N[C@@H](C)C(=O)N[C@@H](Cc1c[nH]c2ccccc12)C(=O)N[C@@H](CC(C)C)C(=O)N[C@H](C(=O)N[C@@H](CCC(=O)O)C(=O)N[C@@H](CCCCN)C(=O)N[C@H](C(=O)N[C@@H](CCCCN)C(=O)N[C@@H](CCC(=O)O)C(=O)N[C@@H](CCCCN)C(N)=O)C(C)C)C(C)C` [Compound 110, [Aib8,Glu23,Val25,Glu34,Lys35,Val36,Lys37]-GLP-1-(7-37)-peptidyl-Glu-Lvs amide] (H-H[Aib]EGTFTSDVSSYLEGEAVKEFIAWLVEKVKEK-NH2), in experiment [1], the “4 h Cholesterol Efflux Emax” value was found to be 106%. The half-maximal effective concentration (EC50) at human GLP-1 receptor (setting [3]) amounted to 0.043 nM; on human GLP-1 receptor (setting [2]), 0.014 nM.
For `CC[C@H](C)[C@H](NC(=O)[C@H](Cc1ccccc1)NC(=O)[C@H](CCC(=O)O)NC(=O)[C@H](CCCCN)NC(=O)[C@@H](NC(=O)[C@H](C)NC(=O)[C@H](CCC(=O)O)NC(=O)CNC(=O)[C@H](CCC(=O)O)NC(=O)[C@H](CC(C)C)NC(=O)[C@H](Cc1ccc(O)cc1)NC(=O)[C@H](CO)NC(=O)[C@H](CO)NC(=O)[C@@H](NC(=O)[C@H](CC(=O)O)NC(=O)[C@H](CO)NC(=O)[C@@H](NC(=O)[C@H](Cc1ccccc1)NC(=O)[C@@H](NC(=O)CNC(=O)[C@H](CCC(=O)O)NC(=O)C(C)(C)NC(=O)[C@@H](N)Cc1c[nH]cn1)[C@@H](C)O)[C@@H](C)O)C(C)C)C(C)C)C(=O)N[C@@H](CCC(=O)O)C(=O)N[C@@H](Cc1c[nH]c2ccccc12)C(=O)N[C@@H](CC(C)C)C(=O)N[C@H](C(=O)N[C@@H](CCC(=O)O)C(=O)N[C@@H](CCCCN)C(=O)N[C@H](C(=O)N[C@@H](CCCCN)C(=O)N[C@@H](CCC(=O)O)C(=O)N[C@@H](CCCCN)C(=O)N[C@@H](CC(C)C)C(N)=O)C(C)C)C(C)C` [Compound 112] (H-H[Aib]EGTFTSDVSSYLEGEAVKEFIEWLVEKVKEKL-NH2) the same measures were 119%, 0.163 nM and 0.039 nM.
For `CC[C@H](C)[C@H](NC(=O)[C@H](Cc1ccccc1)NC(=O)[C@H](CCC(=O)O)NC(=O)[C@H](CCCCN)NC(=O)[C@@H](NC(=O)[C@H](C)NC(=O)[C@H](CCC(=O)O)NC(=O)CNC(=O)[C@H](CCC(=O)O)NC(=O)[C@H](CC(C)C)NC(=O)[C@H](Cc1ccc(O)cc1)NC(=O)[C@H](CO)NC(=O)[C@H](CO)NC(=O)[C@@H](NC(=O)[C@H](CC(=O)O)NC(=O)[C@H](CO)NC(=O)[C@@H](NC(=O)[C@H](Cc1ccccc1)NC(=O)[C@@H](NC(=O)CNC(=O)[C@H](CCC(=O)O)NC(=O)C(C)(C)NC(=O)[C@@H](N)Cc1c[nH]cn1)[C@@H](C)O)[C@@H](C)O)C(C)C)C(C)C)C(=O)N[C@@H](C)C(=O)N[C@@H](Cc1c[nH]c2ccccc12)C(=O)N[C@@H](CC(C)C)C(=O)N[C@H](C(=O)N[C@@H](CCC(=O)O)C(=O)N[C@@H](CCCCN)C(=O)NCC(=O)N[C@@H](CCCCN)C(=O)N[C@@H](CCC(=O)O)C(=O)N[C@@H](Cc1ccccc1)C(=O)N[C@@H](CC(C)C)C(N)=O)C(C)C` [Compound 113, [Aib8,Glu23,Val25,Glu34,Lys35,Gly36,Lys37]-GLP-1-(7-37)-peptidyl-Glu-Phe-Leu amide] (H-H[Aib]EGTFTSDVSSYLEGEAVKEFIAWLVEKGKEFL-NH2), the “4 h Cholesterol Efflux Emax” value in experiment [1] came to 143%. In addition, on human GLP-1 receptor (setting [3]), the EC50 worked out at 0.034 nM.
As for `CC[C@H](C)[C@H](NC(=O)[C@H](Cc1ccccc1)NC(=O)[C@H](CCC(=O)O)NC(=O)[C@H](CCCCN)NC(=O)[C@@H](NC(=O)[C@H](C)NC(=O)[C@H](CCC(=O)O)NC(=O)CNC(=O)[C@H](CCC(=O)O)NC(=O)[C@H](CC(C)C)NC(=O)[C@H](Cc1ccc(O)cc1)NC(=O)[C@H](CO)NC(=O)[C@H](CO)NC(=O)[C@@H](NC(=O)[C@H](CC(=O)O)NC(=O)[C@H](CO)NC(=O)[C@@H](NC(=O)[C@H](Cc1ccccc1)NC(=O)[C@@H](NC(=O)CNC(=O)[C@H](CCC(=O)O)NC(=O)C(C)(C)NC(=O)[C@@H](N)Cc1c[nH]cn1)[C@@H](C)O)[C@@H](C)O)C(C)C)C(C)C)C(=O)N[C@@H](C)C(=O)N[C@@H](Cc1c[nH]c2ccccc12)C(=O)N[C@@H](CC(C)C)C(=O)N[C@H](C(=O)N[C@@H](CCC(=O)O)C(=O)N[C@@H](CCCCN)C(=O)N[C@H](C(=O)N[C@@H](CCCCN)C(=O)NCC(=O)N[C@@H](Cc1ccccc1)C(=O)N[C@@H](CC(C)C)C(N)=O)C(C)C)C(C)C` [Compound 115, [Aib8,Glu23,Val25,Glu34,Lys35,Val36,Lys37]-GLP-1-(7-37)-peptidyl-Glv-Phe-Leu amide] (H-H[Aib]EGTFTSDVSSYLEGEAVKEFIAWLVEKVKGFL-NH2), the “4 h Cholesterol Efflux Emax” value in experiment [1] turned out to be 94%. The molecule further had an EC50 at human GLP-1 receptor (setting [2]) of 0.032 nM.
